# According to patent publication US9717737B2, “Vacuolin-1 as an inhibitor of autophagy and endosomal trafficking and the use thereof for inhibiting tumor progression” (The University of Hong Kong, priority 2014, dated 2017):
# Tested on: LCSC tumor xenograft
# Test: LCSC tumor xenograft in BALB/c nude mice
# Type: in vivo
# Experimental: We first assessed the ability of vacuolin-1 to suppress LCSC tumor xenograft in BALB/c nude mice. Briefly, 1×10^4 lung cancer stem cells (LCSCs, 3rd generation) were suspended in Matrigel (BD Biosciences) at a ratio of 1:1, and 200 iL of cells was subcutaneously injected into the back of nude mice. The tumor volume was measured every five days after injection and calculated from the formula: length×width×depth×π/6. Mice were removed from the study when their tumor volumes exceed 2000 mm^3 (FIG. 18A). […] Also, we tested the acute toxicity of vacuolin-1 in mice.
# [1] = nude mice, intratumoral injection 5 mg/kg twice a week
smiles,measurement,setting,value
Ic1cccc(/C=N/Nc2nc(N3CCOCC3)nc(N(c3ccccc3)c3ccccc3)n2)c1 [vacuolin-1],autophagy in tumors,"LCSC xenograft, vacuolin-1 treatment",markedly inhibited autophagy
same,tumor growth of LCSC xenograft,[1],markedly inhibited tumor growth
same,weight gain of xenograft mice,[1],little effects
